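Interpolation was linear, between the two tested concentrations surrounding the appropriate level; five concentrations were tested over 48 hours in 96-well plates. GI50 marks 50% less growth.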 Active and inactive are the calls of the source. Cut-off read from the data, not from the text of the source: active = GI50 up to about 1.1 µM and inactive = higher.
How the values were obtained:
Assay in all cases: NCI-60 cell line screen, 48 h
SW-620 = tested on: SW-620
786-0 = tested on: 786-0
RPMI-8226 = tested on: RPMI-8226
MDA-N = tested on: MDA-N
COLO 205 = tested on: COLO 205
SR = tested on: SR
HT-29 = tested on: HT-29
SF-539 = tested on: SF-539
K562 = tested on: K562
HCC 2998 = tested on: HCC 2998
HCT-116 = tested on: HCT-116
SNB-75 = tested on: SNB-75
OVCAR-5 = tested on: OVCAR-5
SF-268 = tested on: SF-268
TK-10 = tested on: TK-10
UACC-62 = tested on: UACC-62
HL-60 = tested on: HL-60

Measured: GI50

CNC(=O)C1(C#N)C(c2ccccc2)C(C#N)(C(=O)NC)C1c1ccccc1 (stereo not given)
inactive: SW-620 > 100 µM | 786-0 > 100 µM | RPMI-8226 87.1 µM | MDA-N > 100 µM | COLO 205 > 100 µM | SR > 100 µM | HT-29 > 100 µM | SF-539 > 100 µM | K562 24.4 µM | HCC 2998 > 100 µM | HCT-116 > 100 µM | SNB-75 > 100 µM | OVCAR-5 > 100 µM | SF-268 > 100 µM | TK-10 > 100 µM

FC(F)(F)c1ccc(C2=N/S(c3ccccc3)=N\C(c3ccc(C(F)(F)F)cc3)=N/S(c3ccccc3)=N\2)cc1 (stereo not given)
inactive: UACC-62 > 100 µM | SW-620 > 100 µM | 786-0 80 µM | RPMI-8226 > 100 µM | MDA-N > 100 µM | COLO 205 > 100 µM | SR > 100 µM | HT-29 > 100 µM | SF-539 > 100 µM | K562 > 100 µM | HCC 2998 > 100 µM | HCT-116 > 100 µM | SNB-75 > 100 µM | OVCAR-5 > 100 µM | SF-268 > 100 µM | TK-10 > 100 µM

CN(C)C1C(CO)OC(n2cnc3c(N)ncnc32)C1O (stereo not given)
inactive: UACC-62 > 100 µM | SW-620 > 100 µM | 786-0 > 100 µM | RPMI-8226 > 100 µM | MDA-N > 100 µM | COLO 205 > 100 µM | HL-60 > 100 µM | SR > 100 µM | HT-29 > 100 µM | SF-539 > 100 µM | K562 > 100 µM | HCT-116 > 100 µM | SNB-75 > 100 µM | OVCAR-5 > 100 µM | SF-268 > 100 µM | TK-10 > 100 µM

CN(C)C1C(O)=C(C(=O)NCN2CCCC2)C(=O)C2(O)C(O)=C3C(=O)c4c(O)cccc4C(C)(O)C3CC12 (stereo not given)
inactive: UACC-62 > 100 µM | SW-620 > 100 µM | 786-0 > 100 µM | RPMI-8226 > 100 µM | MDA-N > 100 µM | COLO 205 > 100 µM | HL-60 > 100 µM | SR > 100 µM | HT-29 > 100 µM | K562 57 µM | HCT-116 > 100 µM | SNB-75 52.4 µM | OVCAR-5 > 100 µM | SF-268 > 100 µM | TK-10 60.7 µM

CN1N(c2ccccc2)C(=O)C2=NC=C(C#N)C(=N)C21C (stereo not given)
inactive: UACC-62 > 100 µM | SW-620 > 100 µM | 786-0 > 100 µM | RPMI-8226 > 100 µM | MDA-N > 100 µM | COLO 205 > 100 µM | SR 19.8 µM | SF-539 > 100 µM | K562 > 100 µM | HCC 2998 > 100 µM | HCT-116 > 100 µM | SNB-75 > 100 µM | OVCAR-5 > 100 µM | TK-10 > 100 µM

CCCC(CCN)(CCN)[N+](=O)[O-]
inactive: UACC-62 > 100 µM | SW-620 > 100 µM | 786-0 > 100 µM | RPMI-8226 > 100 µM | MDA-N > 100 µM | COLO 205 > 100 µM | HL-60 > 100 µM | SR > 100 µM | HT-29 > 100 µM | SF-539 > 100 µM | K562 > 100 µM | HCT-116 > 100 µM | SNB-75 11.2 µM | OVCAR-5 > 100 µM | SF-268 > 100 µM | TK-10 > 100 µM

CC(=O)OC1C(Oc2c(C)cc3c(c2O)[C@@H](C)CC[C@@H]3[C@@H](C)CCC=C(C)C)OCC(O)C1O (stereo not given in full)
inactive: UACC-62 18.3 µM | SW-620 18.7 µM | 786-0 18.4 µM | MDA-N 21 µM | COLO 205 16.6 µM | HL-60 21.4 µM | SR 22.9 µM | HT-29 14.4 µM | SF-539 18.5 µM | K562 13.5 µM | HCT-116 18.2 µM | OVCAR-5 16.9 µM | SF-268 18.2 µM
